Experimental data: PMC9772450, “Gel-forming antagonist provides a lasting effect on CGRP-induced vasodilation” (Frontiers in Pharmacology, 2022)
Where two headings read alike, the source gives them in different places. Non-standard residues stand in square brackets, D forms with d. Residues, ends and D or L forms follow the SMILES beside them. *: point of attachment. 2Nal = N[C@@H](Cc1ccc2ccccc2c1)C(=O)O; Met(O2) = CS(=O)(=O)CC[C@H](N)C(=O)O; Arg(Me) = CNC(=N)NCCC[C@H](N)C(=O)O; Palmitoyl = CCCCCCCCCCCCCCCC(=O)*

Columns and labels:
CLR/RAMP1 receptor = biological target: T1, CLR/RAMP1 receptor (Homo sapiens, UniProt O60894+Q16602); assay: HitHunter cAMP XS+ CALCRL-RAMP1 cAMP assay, antagonist mode; format: cell-based; conditions: for IC50: CHO-K1 CALCRL-RAMP1 cAMP Hunter cells, human β-CGRP at EC80 (0.37nM), 30 min pre-incubation, 10-point curve from 10 μM, 3-fold dilutions, duplicate samples, assayed side-by-side once, read-out: IC50 for antagonizing CGRP-induced CLR/RAMP1 signaling; for Maximum response: antagonist mode, β-CGRP at EC80, 10-point curve, duplicate; for Antagonistic activity toward CGRP-mediated CLR/RAMP1 signaling compared to ADE651: result in words
T1 construct: host or cells: CHO-K1 (cAMP Hunter cell line)
Protocol: The assay of the antagonistic activity of analogs was conducted by the Eurofins Discoverx using the HitHunter cAMP XS + assay as described earlier ([Bradley and McLoughlin, 2009]; [Chang and Hsu, 2019]). The dose-dependent inhibitory effect of antagonists was studied in duplicate, at 10 different concentrations. Determination of the half-maximal inhibitory concentration (IC50) was performed using a 10-point dose-response curve. The starting concentration was 10 μM, and it was serially diluted 3-fold, in DMSO. […] Using the Hit Hunter® assay (CALCRL-RAMP1 cAMP assay in the antagonist mode; https://www.discoverx.com/products/cell-line/cho-k1-calcrl-ramp1-gs-cell-line-95-0164c2), the eight compounds in Table 1 were assayed side-by-side once, and the IC50 was derived based on the standard assay of duplicate samples of a ten-point curve. In this homogenous, non-imaging assay, the activation of CLR/RAMP1 signaling was evaluated using the Enzyme Fragment Complementation (EFC) technology with β-galactosidase (β-Gal) as the functional reporter. The enzyme was split into two complementary portions: an enzyme acceptor and an enzyme donor. The enzyme donor is fused to cAMP and it competes with cAMP generated by cells
For binding to a cAMP-specific antibody. Active β-Gal is formed by complementation of exogenous enzyme acceptor to any unbound enzyme donor-cAMP. The active enzyme then converted a chemiluminescent substrate to generate a signal. Briefly, cAMP Hunter cell lines with the select receptor were expanded from freezer stocks ([Bradley and McLoughlin, 2009]), and cells were seeded in a total volume of 20 μL into 384-well microplates and incubated at 37°C for the appropriate time. […] Intermediate dilution of samples was performed to generate 4X sample in the assay buffer. Before the assay, media was aspirated from cells and replaced with 10 μL 1:1 HBSS/Hepes:cAMP XS + Ab reagent, and 5 μL of 4X compound was added to the cells and incubated for 30 min. […] Vehicle concentration was 1%.
The chemiluminescent signal was read with a PerkinElmer chemiluminescent plate reader. The compound activity was analyzed using a CBIS data analysis suite (ChemInnovation, CA). The percentage inhibition was calculated using the following formula: % Inhibition = 100% x (1 - (mean RLU of test sample - mean RLU of vehicle control)/(mean RLU of EC80 control - mean RLU of vehicle control)). Data were normalized to the maximal and minimal response observed in the presence of EC80 agonist and vehicle.

[1] = Visual (tube-tapping) assay of gel-forming capability and solubility; format: physicochemical; parameters: key to Gel-forming ability: Y: can form a liquid gel; N: lacks the ability to efficiently form a liquid gel; conditions: for Gel-forming ability: visual inspection of 11% peptide solutions, tube-tapping, 20 min after mixing
Protocol: To evaluate the ability of peptides to form gels in situ, we initially determined this tendency qualitatively based on visual examinations of peptide solutions using a tube-tapping method. In addition, we quantitatively determined the viscosity of select peptide solutions using a viscometer (Rheosense Inc; http://www.rheosense.com/products/viscometers) ([Yan and Pochan, 2010]). In the visual assay, aliquots of peptides were dissolved in an aqueous solution (i.e., de-ionized water, saline, or 5% glucose solution). The peptide that dissolved instantly and stayed as a clear solution without obvious macroscopic change in viscosity at 20 min after mixing was considered soluble. If macroscopic particles of peptides remained in the solution at 20 min after mixing, the peptide was considered insoluble.

[2] = cited from earlier work
[3] = test system: CGRP-induced vasodilation; assay: Dermal blood flow and vasodilation in rat hindlimbs, laser Doppler imaging; format: in vivo, Sprague-Dawley rats; conditions: rat hindlimb; saline at 0 h; CGRP 1 mg/100 µL s.c. at 4 h; N = 3
Protocol: Adult Sprague Dawley male rats (body weight 150–200 g) were randomly divided into treatment groups. Animals were individually housed during the experiment. After acclimation, rats were anesthetized and stabilized under 2.5% isoflurane, and were placed on a heating pad. Testing articles were prepared just before the experiment and individually administered subcutaneously into the hindlimbs. Human β-CGRP (LifeTein LLC, Hillsborough, NJ) was dissolved in a saline solution, and the antagonist solution was prepared in a 5% glucose solution. […] In this experiment, the antagonist gel solution was administered at 0 h as a liquid solution shortly after dissolution to prevent issues associated with the formation of semi-solid gel when the peptide is dissolved at high levels. […] The amount of blood flow was determined by laser Doppler imaging as described earlier ([Van der Schueren et al., 2007]; [Benschop et al., 2014]). The laser Doppler scan series of the hindlimbs began with two baseline scans and was followed by two scans each at select time points. Data are reported as percent change from the average baseline scans.

[4] = Passage of peptide molecules through Centricon filters; format: physicochemical; conditions: Centricon 30,000 MW cutoff, 15 min centrifugation; specific EIA; N = 3 per group; result in words
Text: To evaluate whether gel-formation reduces the movement of peptide molecules in solution, we used the Centricon® filters (Millipore) to separate samples and the carriers based on their molecular mass. The sample is monomeric peptides, and the carrier is the self-assembled gel. One milligram aliquots of the peptides were first dissolved as 0.1% solution in 5% glucose, 0.1% solution in saline, 5% solution in 5% glucose, 10% solution in 5% glucose, and 20% solution in 5% glucose. Ten minutes later, the 5%, 10%, and 20% solutions were diluted to the 0.1% level. Aliquots of these solutions were sampled and dispensed into separate Centricon columns (30,000 MW cutoff), and the monomeric peptide and gel molecules were separated by centrifugation for 15 min (2000 x g). The level of peptide in the elutes was determined by specific EIAs (Phoenix Pharmaceuticals Inc.).

migraine = conditions: cited from earlier work
Text: Migraine is a common complex neurovascular disorder that is manifested as episodic and predominantly unilateral throbbing headache with hypersensitivity to light, sound, and movement ([Erdener and Dalkara, 2014]; [Schuster and Rapoport, 2016]). According to the World Health Organization, 324 million people worldwide suffer from incapacitating migraine in 2008. In ∼ one-third of patients, migraine headaches are accompanied by an aura involving neurological symptoms such as transient visual, sensory, or motor disturbances ([Goadsby et al., 2002]). In the US, it was reported that 15% of Americans ...

T1 sequence (Q16602 23-461): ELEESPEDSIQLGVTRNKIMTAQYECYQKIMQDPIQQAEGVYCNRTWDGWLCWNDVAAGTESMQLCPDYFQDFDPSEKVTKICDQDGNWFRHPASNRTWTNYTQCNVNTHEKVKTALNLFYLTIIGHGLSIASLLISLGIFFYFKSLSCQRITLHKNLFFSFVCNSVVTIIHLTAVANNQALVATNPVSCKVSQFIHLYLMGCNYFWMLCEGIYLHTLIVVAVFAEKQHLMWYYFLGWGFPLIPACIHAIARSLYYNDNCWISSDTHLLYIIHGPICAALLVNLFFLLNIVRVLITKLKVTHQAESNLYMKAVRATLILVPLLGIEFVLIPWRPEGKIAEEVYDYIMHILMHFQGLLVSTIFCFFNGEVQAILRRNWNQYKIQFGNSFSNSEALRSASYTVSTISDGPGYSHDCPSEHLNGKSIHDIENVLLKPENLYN
T1 sequence (O60894 27-148): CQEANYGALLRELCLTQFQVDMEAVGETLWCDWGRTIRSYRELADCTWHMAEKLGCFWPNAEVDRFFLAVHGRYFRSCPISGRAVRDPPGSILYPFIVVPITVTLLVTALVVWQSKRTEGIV

In the case of CCCCCCCCCCCCCCCC(=O)N[C@@H](CCCCN)C(=O)N[C@H](C(=O)N[C@@H](CCC(N)=O)C(=O)N[C@@H](CCCCN)C(=O)N[C@@H](Cc1ccc2ccccc2c1)C(=O)N[C@@H](CO)C(=O)N[C@@H](C)C(=O)N1CCC[C@H]1C(=O)N[C@H](C(=O)N[C@@H](CC(=O)O)C(=O)N1CCC[C@H]1C(=O)N[C@@H](CO)C(=O)N[C@@H](CO)C(=O)N1CCC[C@H]1C(=O)N[C@@H](Cc1c[nH]cn1)C(=O)N[C@@H](CO)C(=O)N[C@@H](Cc1ccc(O)cc1)C(N)=O)C(C)C)C(C)C [ADE651H] (Palmitoyl-KVQK[2Nal]SAPVDPSSPHSY-NH2), the IC50 (CLR/RAMP1 receptor) is reported as 15.1 nM, the Maximum response (CLR/RAMP1 receptor) is reported as 100.1 % of positive control and the “Antagonistic activity toward CGRP-mediated CLR/RAMP1 signaling compared to ADE651” value (CLR/RAMP1 receptor) is reported as “significantly reduced antagonistic activity”. For the same compound, the Gel-forming ability [1] was “Y”.
For histrelin, the Volume of distribution ([2]; in vivo) is listed as 58.4 L.
In the case of “Pal-KVQ-Lys (Pyr)-LSAPVDPSSPHSY-NH2 [ADE651N, ADE651 variant, second lysine substituted with Lys (Pyr)]”, the Maximum response (CLR/RAMP1 receptor) is reported as 99.9 % of positive control, the “Antagonistic activity toward CGRP-mediated CLR/RAMP1 signaling compared to ADE651” value (CLR/RAMP1 receptor) is reported as “retained the potent antagonistic activity” and the Gel-forming ability [1] is reported as “Y”.
With CSCC[C@H](NC(=O)CNC(=O)CNC(=O)[C@H](CO)NC(=O)[C@H](CCCNC(=N)N)NC(=O)[C@H](CO)NC(=O)[C@H](CC(C)C)NC(=O)[C@H](CC(C)C)NC(=O)CNC(=O)[C@H](C)NC(=O)[C@H](CC(C)C)NC(=O)[C@H](CCCNC(=N)N)NC(=O)[C@H](Cc1c[nH]cn1)NC(=O)[C@@H](NC(=O)[C@@H](NC(=O)[C@@H]1CSSC[C@H](NC(=O)[C@H](C)N)C(=O)N[C@@H](CC(N)=O)C(=O)N[C@@H]([C@@H](C)O)C(=O)N[C@@H](C)C(=O)N[C@@H]([C@@H](C)O)C(=O)N1)C(C)C)[C@@H](C)O)C(=O)N[C@H](C(=O)N[C@@H](CCCCN)C(=O)N[C@@H](CO)C(=O)N[C@@H](CC(N)=O)C(=O)N[C@@H](Cc1ccccc1)C(=O)N[C@H](C(=O)N1CCC[C@H]1C(=O)N[C@H](C(=O)N[C@@H](CC(N)=O)C(=O)N[C@H](C(=O)NCC(=O)N[C@@H](CO)C(=O)N[C@@H](CCCCN)C(=O)N[C@@H](C)C(=O)N[C@@H](Cc1ccccc1)C(N)=O)C(C)C)[C@@H](C)O)C(C)C)C(C)C [CGRP, calcitonin gene-related peptide] the “Increase in blood flow at the 5 h time point in control animals” value [3] was over 25%, the “EC80 of agonist in the cAMP assay” value (CLR/RAMP1 receptor; agonist, cAMP Hunter CLR/RAMP1 cells) was 0.37 nM and the “Peptide level in elutes from 0.1, 5, 10 and 20% solution groups” value [4] was “similar”. For the same compound, the “Solubility in 5% glucose solution” value ([1]; visual) was “soluble from 0.1% to 20%”.
In the case of setmelanotide, the Volume of distribution ([2]; approved peptide therapeutics) is given as 48.7 L.
With CCCCCCCCCCCCCCCC(=O)N[C@@H](CCCCN)C(=O)N[C@H](C(=O)N[C@@H](CCC(N)=O)C(=O)N[C@@H](CCCNC(=N)NC)C(=O)N[C@@H](CC(C)C)C(=O)N[C@@H](CO)C(=O)N[C@@H](C)C(=O)N1CCC[C@H]1C(=O)N[C@H](C(=O)N[C@@H](CC(=O)O)C(=O)N1CCC[C@H]1C(=O)N[C@@H](CO)C(=O)N[C@@H](CO)C(=O)N1CCC[C@H]1C(=O)N[C@@H](Cc1c[nH]cn1)C(=O)N[C@@H](CO)C(=O)N[C@@H](Cc1ccc(O)cc1)C(N)=O)C(C)C)C(C)C [ADE651M] (Palmitoyl-KVQ[Arg(Me)]LSAPVDPSSPHSY-NH2) the “Antagonistic activity toward CGRP-mediated CLR/RAMP1 signaling compared to ADE651” value (CLR/RAMP1 receptor) was “retained the potent antagonistic activity” and the Gel-forming ability [1] was “Y”.
With CCCCCCCCCCCCCCCC(=O)N[C@@H](CCCCN)C(=O)N[C@H](C(=O)N[C@@H](CCC(N)=O)C(=O)N[C@@H](CCCCN)C(=O)N[C@@H](CCS(C)(=O)=O)C(=O)N[C@@H](CO)C(=O)N[C@@H](C)C(=O)N1CCC[C@H]1C(=O)N[C@H](C(=O)N[C@@H](CC(=O)O)C(=O)N1CCC[C@H]1C(=O)N[C@@H](CO)C(=O)N[C@@H](CO)C(=O)N1CCC[C@H]1C(=O)N[C@@H](Cc1c[nH]cn1)C(=O)N[C@@H](CO)C(=O)N[C@@H](Cc1ccc(O)cc1)C(N)=O)C(C)C)C(C)C [ADE651J] (Palmitoyl-KVQK[Met(O2)]SAPVDPSSPHSY-NH2) the IC50 (CLR/RAMP1 receptor) was 0.9 nM, the Maximum response (CLR/RAMP1 receptor) was 100.4 % of positive control and the “Antagonistic activity toward CGRP-mediated CLR/RAMP1 signaling compared to ADE651” value (CLR/RAMP1 receptor) was “retained the potent antagonistic activity”. The Gel-forming ability [1] was “Y”.
With “VGCRFGTCTVQKLAHLWQLMGPAGRQDSAPVDPSSPHSY-NH2 [ADE410]” the “Peptide level in elutes from 0.1, 5, 10 and 20% solution groups” value [4] was “similar”, the “Solubility in 5% glucose solution” value ([1]; visual) was “soluble from 0.1% to 20%” and the “Liquid gel formation at 6–20% level” value ([1]; visual, result in words) was “does not form a liquid gel”.
In the case of “abaloparatide: approved peptide therapeutic”, the Volume of distribution ([2]; in vivo) is given as 50.0 L.
For exenatide: approved peptide therapeutic, the Volume of distribution ([2]; in vivo) is listed as 28.3 L.
For CC1(C)O[C@@H]2[C@@H](CO[C@@]3(COS(N)(=O)=O)OC(C)(C)O[C@@H]23)O1 [topiramate], the “Reduction of migraine days” value (migraine; ref Overeem et al., 2021) is given as 1.11 migraine days.
For C[C@@H]1[C@H](c2ccccc2)C[C@H](NC(=O)c2cnc3c(c2)C[C@@]2(C3)C(=O)Nc3ncccc32)C(=O)N1CC(F)(F)F [ubrogepant], the “Pain freedom at 2 h, share of acute migraine patients” value (migraine; 14.3% in the placebo group, ref Lipton et al., 2019, Switzer et al., 2022) is given as 21.8% and the “Absolute difference in the pain-free rate versus placebo” value (migraine; ref Lipton et al., 2019, Switzer et al., 2022) is given as 6.4–7.5%.
